Data taken from ChEMBL document CHEMBL3885881, “DrugMatrix”.

Organism: Rattus norvegicus
Assay: DrugMatrix - Regimen: Daily Repeat
Format: toxicity, organism-based, Sprague-Dawley
Design: regimen Daily Repeat, gender Male, age 6-8 weeks
Conditions: in vivo, po, route oral GAVAGE, […]; for ABSOLUTE BASOPHIL / ABSOLUTE EOSINOPHIL / ABSOLUTE LYMPHOCYTE / ABSOLUTE MONOCYTE / ABSOLUTE SEGMENTED NEUTROPHIL / BASOPHIL / EOSINOPHIL / ERYTHROCYTE COUNT / HEMATOCRIT / HEMOGLOBIN / LEUKOCYTE COUNT / LYMPHOCYTE / MEAN CORPUSCULAR HEMOGLOBIN / MEAN CORPUSCULAR HEMOGLOBIN CONCENTRATION / MEAN CORPUSCULAR VOLUME / MONOCYTE / NEUTROPHIL / NUCLEATED RED BLOOD CELLS / PLATELET COUNT: tissue Blood; for ALANINE AMINOTRANSFERASE / ALBUMIN / ALKALINE PHOSPHATASE / ASPARTATE AMINOTRANSFERASE / BLOOD UREA NITROGEN / CARBON DIOXIDE / CHLORIDE / CHOLESTEROL / CREATINE PHOSPHOKINASE / CREATININE / GLUCOSE / LACTATE DEHYDROGENASE / LIPASE / PHOSPHORUS / SODIUM / TOTAL BILIRUBIN / TOTAL PROTEIN / URIC ACID: tissue Plasma
[1] = 450 mg/kg, 120 h, dose level Low, time 5 day
[2] = 1500 mg/kg, 72 h, dose level High, time 3 day
[3] = 1500 mg/kg, 120 h, dose level High, time 5 day

For `CC[C@H](C)C(=O)O[C@H]1C[C@@H](C)C=C2C=C[C@H](C)[C@H](CC[C@@H]3C[C@@H](O)CC(=O)O3)[C@H]21` [LOVASTATIN], the “ABSOLUTE BASOPHIL” value [1] was 0 CELLS/uL, the “ABSOLUTE EOSINOPHIL” value [1] was 0 CELLS/uL and the “ABSOLUTE LYMPHOCYTE” value [1] was 8158 CELLS/uL. For the same molecule, the “ABSOLUTE MONOCYTE” value [1] was 134 CELLS/uL, the “ABSOLUTE SEGMENTED NEUTROPHIL” value [1] was 1208 CELLS/uL and the BASOPHIL [1] was 0%. For the same molecule, the EOSINOPHIL [1] was 0%, the “ERYTHROCYTE COUNT” value [1] was 6.46 x10E6/uL and the HEMATOCRIT [1] was 40.17%. The HEMOGLOBIN [1] was 15.27 G/DL, the “LEUKOCYTE COUNT” value [1] was 9.5 x10E3/uL and the LYMPHOCYTE [1] was 86%. The “MEAN CORPUSCULAR HEMOGLOBIN” value [1] was 23.63 pg, the “MEAN CORPUSCULAR HEMOGLOBIN CONCENTRATION” value [1] was 38.03 G/DL and the “MEAN CORPUSCULAR VOLUME” value [1] was 62.2 fL. The MONOCYTE [1] was 1.33%, the NEUTROPHIL [1] was 12.67% and the “NUCLEATED RED BLOOD CELLS” value [1] was 0 /100WBC. For the same molecule, the “PLATELET COUNT” value [1] was 1425.67 x10E3/uL, the “ALANINE AMINOTRANSFERASE” value [1] was 153 u/L and the ALBUMIN [1] was 4.83 G/DL. For the same molecule, the “ALKALINE PHOSPHATASE” value [1] was 635.67 u/L, the “ASPARTATE AMINOTRANSFERASE” value [1] was 360.33 u/L and the “BLOOD UREA NITROGEN” value [1] was 15.33 mg/dL. The “CARBON DIOXIDE” value [1] was 35.67 mmol/L, the CHLORIDE [1] was 100.5 MEQ/L and the CHOLESTEROL [1] was 28.67 mg/dL. The “CREATINE PHOSPHOKINASE” value [1] was 410.33 u/L, the CREATININE [1] was 0.31 mg/dL and the GLUCOSE [1] was 137.33 mg/dL. The “LACTATE DEHYDROGENASE” value [1] was 182.33 u/L, the LIPASE [1] was 15.33 u/L and the PHOSPHORUS [1] was 8.7 mg/dL. The SODIUM [1] was 145.2 MEQ/L, the “TOTAL BILIRUBIN” value [1] was 0.23 mg/dL and the “TOTAL PROTEIN” value [1] was 6.1 G/DL. The “URIC ACID” value [1] was 0.5 mg/dL, the “ABSOLUTE BASOPHIL” value [2] was 0 CELLS/uL and the “ABSOLUTE EOSINOPHIL” value [2] was 21.67 CELLS/uL. For the same molecule, the “ABSOLUTE LYMPHOCYTE” value [2] was 6143.33 CELLS/uL, the “ABSOLUTE MONOCYTE” value [2] was 201 CELLS/uL and the “ABSOLUTE SEGMENTED NEUTROPHIL” value [2] was 2134 CELLS/uL. The BASOPHIL [2] was 0%, the EOSINOPHIL [2] was 0.33% and the “ERYTHROCYTE COUNT” value [2] was 5.62 x10E6/uL. The HEMATOCRIT [2] was 35.1%, the HEMOGLOBIN [2] was 13.97 G/DL and the “LEUKOCYTE COUNT” value [2] was 8.5 x10E3/uL. The LYMPHOCYTE [2] was 72%, the “MEAN CORPUSCULAR HEMOGLOBIN” value [2] was 24.9 pg and the “MEAN CORPUSCULAR HEMOGLOBIN CONCENTRATION” value [2] was 39.83 G/DL. The “MEAN CORPUSCULAR VOLUME” value [2] was 62.5 fL, the MONOCYTE [2] was 2.33% and the NEUTROPHIL [2] was 25.33%. For the same molecule, the “NUCLEATED RED BLOOD CELLS” value [2] was 0 /100WBC, the “PLATELET COUNT” value [2] was 1031.67 x10E3/uL and the “ALANINE AMINOTRANSFERASE” value [2] was 318 u/L. The ALBUMIN [2] was 4.3 G/DL, the “ALKALINE PHOSPHATASE” value [2] was 538.67 u/L and the “ASPARTATE AMINOTRANSFERASE” value [2] was 602.33 u/L. The “BLOOD UREA NITROGEN” value [2] was 15.33 mg/dL, the “CARBON DIOXIDE” value [2] was 30.33 mmol/L and the CHLORIDE [2] was 98 MEQ/L. The CHOLESTEROL [2] was 50 mg/dL, the “CREATINE PHOSPHOKINASE” value [2] was 490 u/L and the CREATININE [2] was 0.37 mg/dL. For the same molecule, the GLUCOSE [2] was 141.67 mg/dL, the “LACTATE DEHYDROGENASE” value [2] was 851.33 u/L and the LIPASE [2] was 10.33 u/L. For the same molecule, the PHOSPHORUS [2] was 10.3 mg/dL, the SODIUM [2] was 142.63 MEQ/L and the “TOTAL BILIRUBIN” value [2] was 0.1 mg/dL. For the same molecule, the “TOTAL PROTEIN” value [2] was 5.53 G/DL, the “URIC ACID” value [2] was 0.7 mg/dL and the “ABSOLUTE BASOPHIL” value [3] was 0 CELLS/uL. The “ABSOLUTE EOSINOPHIL” value [3] was 0 CELLS/uL, the “ABSOLUTE LYMPHOCYTE” value [3] was 8899 CELLS/uL and the “ABSOLUTE MONOCYTE” value [3] was 314.33 CELLS/uL. The “ABSOLUTE SEGMENTED NEUTROPHIL” value [3] was 2320 CELLS/uL, the BASOPHIL [3] was 0% and the EOSINOPHIL [3] was 0%. The “ERYTHROCYTE COUNT” value [3] was 6.78 x10E6/uL, the HEMATOCRIT [3] was 41.27% and the HEMOGLOBIN [3] was 15.53 G/DL. For the same molecule, the “LEUKOCYTE COUNT” value [3] was 11.53 x10E3/uL, the LYMPHOCYTE [3] was 76% and the “MEAN CORPUSCULAR HEMOGLOBIN” value [3] was 22.93 pg. For the same molecule, the “MEAN CORPUSCULAR HEMOGLOBIN CONCENTRATION” value [3] was 37.63 G/DL, the “MEAN CORPUSCULAR VOLUME” value [3] was 60.93 fL and the MONOCYTE [3] was 2.67%. For the same molecule, the NEUTROPHIL [3] was 21.33%, the “NUCLEATED RED BLOOD CELLS” value [3] was 0 /100WBC and the “PLATELET COUNT” value [3] was 1526.33 x10E3/uL. For the same molecule, the “ALANINE AMINOTRANSFERASE” value [3] was 234.33 u/L, the ALBUMIN [3] was 4.7 G/DL and the “ALKALINE PHOSPHATASE” value [3] was 440.67 u/L. The “ASPARTATE AMINOTRANSFERASE” value [3] was 648.33 u/L, the “BLOOD UREA NITROGEN” value [3] was 17 mg/dL and the “CARBON DIOXIDE” value [3] was 35.67 mmol/L. The CHLORIDE [3] was 100.5 MEQ/L, the CHOLESTEROL [3] was 55.33 mg/dL and the “CREATINE PHOSPHOKINASE” value [3] was 603 u/L. For the same molecule, the CREATININE [3] was 0.34 mg/dL, the GLUCOSE [3] was 135 mg/dL and the “LACTATE DEHYDROGENASE” value [3] was 832.33 u/L. For the same molecule, the LIPASE [3] was 14.67 u/L, the PHOSPHORUS [3] was 8.5 mg/dL and the SODIUM [3] was 145.6 MEQ/L. For the same molecule, the “TOTAL BILIRUBIN” value [3] was 0.2 mg/dL, the “TOTAL PROTEIN” value [3] was 6.33 G/DL and the “URIC ACID” value [3] was 0.63 mg/dL.
